According to PMC3116320 (Indian Journal of Pharmaceutical Sciences, 2010):

What was measured:
Experiment in all cases: Sulforhodamine-B
Format in all cases: cell-based
[1] = tested on: HT29 colon cancer cell line; details: Homo sapiens, HT-29, read-out: IC50 anticancer evaluation HT29
[2] = tested on: HOP62 lung cancer cell line; details: Homo sapiens, HOP-62, read-out: IC50 anticancer evaluation Hop62
[3] = tested on: MCF7 breast cancer cell line; details: Homo sapiens, MCF7, read-out: IC50 anticancer evaluation MCF
[4] = tested on: MIA-PA-CA-2 pancreatic cancer cell line; details: Homo sapiens, MIA PaCa-2, read-out: IC50 anticancer evaluation Miapaca-2
[5] = tested on: Colo205 colon cancer cell line; details: Homo sapiens, COLO 205, read-out: IC50 anticancer evaluation Colo205

IC50 [1]: < 15 µM | IC50 [2]: < 15 µM | IC50 [3]: < 15 µM | IC50 [4]: < 15 µM | IC50 [5]: < 15 µM
SMILES: COc1cccc2c1C(=O)c1c(O)c3c(c(O)c1C2=O)C[C@@](O)(C(=O)CO)C[C@@H]3O[C@H]1C[C@H](N)[C@H](O)[C@H](C)O1 [Adriamycin]
